Measured values as given in ChEMBL document CHEMBL1201862, “PubChem BioAssay data set” (2004).
Calls of active or inactive are those of the source.

Legend:
[1] = molecular target: T1, Oxysterols receptor LXR-beta (Homo sapiens, UniProt P55055); type: functional, cell-based
T1 sequence (P55055 whole entry): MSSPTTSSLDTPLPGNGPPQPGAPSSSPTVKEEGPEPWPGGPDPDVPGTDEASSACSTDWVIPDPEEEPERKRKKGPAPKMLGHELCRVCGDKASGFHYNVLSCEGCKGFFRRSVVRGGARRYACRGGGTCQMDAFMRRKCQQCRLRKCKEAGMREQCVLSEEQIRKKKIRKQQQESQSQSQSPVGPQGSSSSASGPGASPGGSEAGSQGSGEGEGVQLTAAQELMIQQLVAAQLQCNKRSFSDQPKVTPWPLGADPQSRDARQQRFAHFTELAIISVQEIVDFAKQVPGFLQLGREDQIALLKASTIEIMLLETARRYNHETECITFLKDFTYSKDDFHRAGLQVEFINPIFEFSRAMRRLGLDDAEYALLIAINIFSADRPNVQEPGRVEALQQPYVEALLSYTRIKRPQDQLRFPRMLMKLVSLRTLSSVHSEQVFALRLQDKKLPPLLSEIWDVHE

Protein skinhead-1 = molecular target: T2, Protein skinhead-1 (Caenorhabditis elegans, UniProt P34707); type: functional
T2 sequence (P34707 whole entry): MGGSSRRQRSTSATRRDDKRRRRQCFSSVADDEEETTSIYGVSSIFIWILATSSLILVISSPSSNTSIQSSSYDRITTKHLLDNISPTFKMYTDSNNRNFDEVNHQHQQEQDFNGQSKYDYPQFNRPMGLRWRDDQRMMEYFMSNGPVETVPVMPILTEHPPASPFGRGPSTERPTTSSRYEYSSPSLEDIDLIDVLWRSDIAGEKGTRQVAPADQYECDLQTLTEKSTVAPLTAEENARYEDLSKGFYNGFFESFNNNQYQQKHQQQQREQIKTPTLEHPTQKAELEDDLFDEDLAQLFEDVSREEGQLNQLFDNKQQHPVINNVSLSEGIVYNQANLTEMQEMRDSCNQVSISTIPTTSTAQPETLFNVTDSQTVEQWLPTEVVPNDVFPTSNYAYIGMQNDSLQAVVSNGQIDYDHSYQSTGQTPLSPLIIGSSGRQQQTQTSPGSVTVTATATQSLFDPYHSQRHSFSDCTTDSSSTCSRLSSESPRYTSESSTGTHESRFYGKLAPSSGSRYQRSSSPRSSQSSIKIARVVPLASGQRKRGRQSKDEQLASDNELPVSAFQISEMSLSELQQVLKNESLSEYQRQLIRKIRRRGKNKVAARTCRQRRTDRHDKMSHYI

[2] = molecular target: T1, Oxysterols receptor LXR-beta; type: functional, cell-based; remark: listed apart in the source
[3] = molecular target: Disintegrin and metalloproteinase domain-containing protein 17 (Homo sapiens, UniProt P78536); assay: exosite inhibitors of ADAM17, dose response, biochemical (AID 743260)
[4] = inhibition of ADAM10 peptide cleavage – biochemical, FRET peptide substrate, recombinant human ADAM10, selectivity assay for ADAM17 exosite inhibitor project, dose response (AID 743259);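 note: ADAM10 enzyme cleaving a FRET peptide substrate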
Paired box protein Pax-8 = Paired box protein Pax-8 (Homo sapiens, UniProt Q06710); assay: PAX8 transcriptional activity inhibition in RMG-I – RMG-I cells, luciferase, cherry-pick, dose response (AID 687027); type: functional, cell-based;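 note: luciferase reporter driven by Pax8 target thyroperoxidase promoter measured by SteadyGlo luminescence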
[5] = inhibitors acting on PAX2 in cells – cell-based, plate reader, dry powder samples, selectivity assay for PAX8 inhibitor project, dose response (AID 743048); type: functional;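 note: HEK293 cells carrying a WT1 promoter luciferase reporter driven by expressed Pax2; potency is for inhibition of Pax2 driven reporter signal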
[6] = PAX5 cellular inhibition readout – cell-based, plate reader, dry powder samples, selectivity assay for PAX8 inhibitor project, dose response (AID 743047); type: functional;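 note: HEK293 cells carrying a Pax5 driven CD19 promoter luciferase reporter; potency of inhibitors that lower reporter luminescence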
[7] = COV434 cell viability loss – plate reader, dry powder, SA7, cytotoxicity control for PAX8 inhibitor project, dose response (AID 743145); type: functional, cell-based
[8] = PAX8-dependent cell viability loss – plate reader, dry powder, dose response (AID 743049); type: functional, cell-based
[9] = YAP1 overexpression rescue of CTGF inhibition – DLD1 cells, RT-qPCR, cherry-pick, mechanism study for YAP1 pathway inhibitor project, dose response (AID 1053127); type: functional, cell-based; conditions: DLD-1
[10] = growth inhibition of yeast DHODH-expressing 3D7 parasites – SYBR Green, dry powder samples, dose response (AID 1159570); type: functional, cell-based;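 note: parasite growth measured after 72 hours of compound exposure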
[11] = toxicity to human HepG2 hepatoma cells – cell-based, plate reader, dry powder samples, cytotoxicity control, dose response (AID 1159569); type: functional;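 note: inhibitor potency with signal falling toward the positive control level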
[12] = P. falciparum Dd2 growth inhibitors, dose response, SYBR Green, cherry-picked samples (AID 1159567); type: functional, cell-based
[13] = Dd2 malaria parasite growth inhibition potency – SYBR Green, dry powder samples, dose response (AID 1159566); type: functional, cell-based;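 note: potency for growth inhibition with lower SYBR green DNA signal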
[14] = growth inhibition of PfATP4-mutant resistant parasites – NITD609-resistant line, SYBR Green, dry powder, dose response (AID 1159571); type: functional, cell-based;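 note: parasites synchronized at ring stage by sorbitol before testing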
[15] = general mammalian cell viability loss – activator set, cherry-pick, cytotoxicity control for miR-122 modulator project, dose response (AID 720690); type: functional, cell-based;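 note: HEK293T human cells scored for general mammalian cytotoxicity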
[16] = toxicity to human hepatoma HepG2 cells – cell-based, cherry-picked samples, cytotoxicity control, dose response (AID 1159577); type: functional
CAAX prenyl protease 2 = molecular target: T3, CAAX prenyl protease 2 (Saccharomyces cerevisiae S288c, UniProt Q03530); type: biochemical
T3 sequence (Q03530 whole entry): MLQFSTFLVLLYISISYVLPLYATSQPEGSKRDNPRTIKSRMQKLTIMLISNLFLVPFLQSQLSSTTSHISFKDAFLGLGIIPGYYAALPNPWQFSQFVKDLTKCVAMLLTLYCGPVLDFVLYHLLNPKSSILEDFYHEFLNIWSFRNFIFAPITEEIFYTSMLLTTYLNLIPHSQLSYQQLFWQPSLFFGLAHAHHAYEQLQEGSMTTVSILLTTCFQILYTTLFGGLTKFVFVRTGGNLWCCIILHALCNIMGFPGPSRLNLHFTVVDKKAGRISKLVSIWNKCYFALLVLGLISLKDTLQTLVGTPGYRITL

[17] = viability loss in HepG2 liver cells – cell-based, ATP luminescence, cherry-pick, set 6, cytotoxicity control, dose response (AID 1053125); type: functional
[18] = M. tuberculosis growth inhibition, HTS (AID 449762); type: functional
[19] = microbe, parasite or virus in culture; type: functional; conditions: Mycobacterium tuberculosis
Estrogen receptor = Estrogen receptor (Homo sapiens, UniProt P03372);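 note: potency for inhibiting coactivator peptide recruitment to the receptor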
Estrogen receptor beta [20] = molecular target: T4, Estrogen receptor beta (Homo sapiens, UniProt Q92731);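 note: recombinant ER-beta bound to coactivator SRC1 peptide in presence of estradiol agonist; inhibitors block coactivator peptide binding and lower the FRET signal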
Estrogen receptor beta [21] = molecular target: T4, Estrogen receptor beta; assay: blockers of SRC-3 recruitment to ERβ – biochemical, ELISA, streptavidin-HRP readout, orthogonal assay, confirmation (AID 1060)

T4 sequence (Q92731 whole entry): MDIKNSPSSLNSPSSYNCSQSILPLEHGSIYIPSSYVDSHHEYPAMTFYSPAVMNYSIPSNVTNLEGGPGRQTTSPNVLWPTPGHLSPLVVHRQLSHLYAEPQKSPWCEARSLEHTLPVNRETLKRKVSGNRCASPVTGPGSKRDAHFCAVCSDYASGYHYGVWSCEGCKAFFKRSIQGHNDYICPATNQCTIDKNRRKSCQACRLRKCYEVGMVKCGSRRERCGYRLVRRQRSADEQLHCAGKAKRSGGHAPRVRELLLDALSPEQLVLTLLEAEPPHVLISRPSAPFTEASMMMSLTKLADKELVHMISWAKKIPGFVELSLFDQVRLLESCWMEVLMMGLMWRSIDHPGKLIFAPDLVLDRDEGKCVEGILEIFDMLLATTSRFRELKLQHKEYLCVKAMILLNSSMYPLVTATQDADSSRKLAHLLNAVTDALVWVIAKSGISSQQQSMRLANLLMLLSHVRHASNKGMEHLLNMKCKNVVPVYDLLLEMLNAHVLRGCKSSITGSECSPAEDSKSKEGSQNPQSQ
Sequence of Disintegrin and metalloproteinase domain-containing protein 17 (P78536 whole entry, the tested form may be a part): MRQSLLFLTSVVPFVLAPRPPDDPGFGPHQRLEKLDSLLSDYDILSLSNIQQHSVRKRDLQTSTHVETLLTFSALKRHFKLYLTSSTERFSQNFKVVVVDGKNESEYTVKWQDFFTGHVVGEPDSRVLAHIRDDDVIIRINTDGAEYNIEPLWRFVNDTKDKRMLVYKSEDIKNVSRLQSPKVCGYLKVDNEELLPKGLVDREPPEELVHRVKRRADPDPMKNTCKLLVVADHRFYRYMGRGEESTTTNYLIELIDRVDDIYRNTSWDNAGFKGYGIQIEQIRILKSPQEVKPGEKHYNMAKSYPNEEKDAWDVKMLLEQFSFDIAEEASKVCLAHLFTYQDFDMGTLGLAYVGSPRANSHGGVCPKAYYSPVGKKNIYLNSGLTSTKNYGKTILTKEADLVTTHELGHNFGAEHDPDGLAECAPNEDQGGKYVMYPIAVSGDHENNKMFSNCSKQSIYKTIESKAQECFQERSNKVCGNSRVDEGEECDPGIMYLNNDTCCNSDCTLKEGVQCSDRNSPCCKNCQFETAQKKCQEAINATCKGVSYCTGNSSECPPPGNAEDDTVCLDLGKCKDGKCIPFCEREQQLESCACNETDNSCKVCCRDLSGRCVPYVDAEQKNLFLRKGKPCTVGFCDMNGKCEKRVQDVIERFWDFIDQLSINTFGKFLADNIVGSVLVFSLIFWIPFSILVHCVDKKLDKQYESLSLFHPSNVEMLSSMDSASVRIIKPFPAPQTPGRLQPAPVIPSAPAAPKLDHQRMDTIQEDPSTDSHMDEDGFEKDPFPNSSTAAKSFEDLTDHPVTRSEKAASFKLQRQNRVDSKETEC
Sequence of Paired box protein Pax-8 (Q06710 whole entry): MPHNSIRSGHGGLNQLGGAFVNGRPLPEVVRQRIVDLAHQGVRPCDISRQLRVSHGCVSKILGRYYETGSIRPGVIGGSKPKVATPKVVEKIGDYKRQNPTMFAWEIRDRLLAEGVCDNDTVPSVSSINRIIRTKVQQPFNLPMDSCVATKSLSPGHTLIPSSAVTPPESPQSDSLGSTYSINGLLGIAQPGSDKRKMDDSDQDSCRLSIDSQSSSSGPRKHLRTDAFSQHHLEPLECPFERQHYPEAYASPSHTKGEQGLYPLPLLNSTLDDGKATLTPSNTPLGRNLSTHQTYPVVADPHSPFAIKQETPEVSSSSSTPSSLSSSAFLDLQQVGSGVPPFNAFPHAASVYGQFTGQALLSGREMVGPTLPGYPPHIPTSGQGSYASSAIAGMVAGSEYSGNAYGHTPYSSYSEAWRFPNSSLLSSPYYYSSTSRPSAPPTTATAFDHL
Sequence of Estrogen receptor (P03372 whole entry): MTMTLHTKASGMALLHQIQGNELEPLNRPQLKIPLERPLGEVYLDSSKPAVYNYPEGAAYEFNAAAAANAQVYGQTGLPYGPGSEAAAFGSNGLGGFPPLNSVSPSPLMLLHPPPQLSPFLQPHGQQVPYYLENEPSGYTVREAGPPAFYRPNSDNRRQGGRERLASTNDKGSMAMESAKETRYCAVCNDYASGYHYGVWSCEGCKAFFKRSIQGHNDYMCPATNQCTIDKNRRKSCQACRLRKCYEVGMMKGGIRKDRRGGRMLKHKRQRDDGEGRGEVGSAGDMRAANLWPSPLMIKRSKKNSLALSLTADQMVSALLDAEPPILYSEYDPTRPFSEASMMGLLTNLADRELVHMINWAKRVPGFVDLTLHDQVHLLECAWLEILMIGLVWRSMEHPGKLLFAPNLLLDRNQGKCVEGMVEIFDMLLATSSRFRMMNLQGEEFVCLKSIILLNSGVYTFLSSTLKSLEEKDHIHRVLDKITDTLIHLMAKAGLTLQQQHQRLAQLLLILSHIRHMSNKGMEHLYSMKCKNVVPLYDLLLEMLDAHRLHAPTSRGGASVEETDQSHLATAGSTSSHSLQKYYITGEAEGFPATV

For c1ccc(CNC2=Nc3ccccc3CS2)nc1, the EC50 [1] was > 67.5 µM (inactive).
For O=C(/C=C/Nc1ccc(F)c(Cl)c1)c1ccco1, the IC50 (Protein skinhead-1) was 25.2 µM (active), the EC50 [2] was > 67.5 µM (inactive) and the EC50 (cells) was > 67.5 µM (inactive).
For COc1ccc(S(=O)(=O)Nc2ccc(Nc3ccccc3)cc2)cc1, the IC50 [3] was > 69.5 µM (inactive) and the IC50 [4] was 12 µM (inactive).
With C[C@H](CO)N1C[C@H](C)[C@@H](CN(C)S(=O)(=O)c2ccc(Cl)cc2)OCCCC[C@H](C)Oc2ccc(NS(=O)(=O)c3ccccc3)cc2C1=O the AC50 (Paired box protein Pax-8) was 6.52 µM (active), the AC50 [5] was 23.7 µM (active) and the AC50 [6] was 26.3 µM (active). For the same compound, the AC50 [7] was 27.6 µM (active) and the AC50 [8] was 14 µM (active).
For C[C@@H]1CN([C@@H](C)CO)C(=O)c2ccccc2-c2ccccc2CO[C@H]1CN(C)C(=O)Nc1cccc(C(F)(F)F)c1, the AC50 [9] was 8.76 µM (active), the AC50 [10] was 0.779 µM (active) and the AC50 [11] was > 100 µM (inactive). For the same compound, the AC50 [12] was 1.55 µM (active), the AC50 [13] was 1.03 µM (active) and the AC50 [14] was 2.38 µM (active).
With CN(C)CC(=O)N1CCCCN2[C@@H](CO)[C@@H](c3ccc(/C=C/c4ccccc4)cc3)[C@@H]2C1 the AC50 [15] was 23.6 µM (active), the AC50 [12] was 1.14 µM (active) and the AC50 [16] was 8.82 µM (active).
For CCOC(=O)c1cc2c(=O)n3cccc(C)c3nc2n(CC(C)C)/c1=N/C(=O)c1ccco1, the AC50 (CAAX prenyl protease 2) was 14 µM (active) and the AC50 [17] was > 52 µM (inactive).
With CCCCCCCC(=O)N/N=C(/C)c1c(O)cc(C)oc1=O the IC50 [18] was > 100 µM (active) and the CC50 [19] was > 40 µM (active).
In the case of CC(=N)/C(C#N)=C(/O)CSc1nnc(-c2ccc(OC(F)F)cc2)o1, the IC50 (Estrogen receptor) is reported as 46.6 µM (not active), the IC50 (Estrogen receptor beta [20]) is reported as 9.26 µM (active) and the IC50 (Estrogen receptor beta [21]) is reported as 18.6 µM (not active).
With Cc1ccc(/N=C/C2=C(O)C3(C)CCC2C3(C)C)cc1C (stereo not drawn) the IC50 [18] was > 100 µM (active).
